Test results taken from patent US9289398B2, “Methods for the production of functional protein from DNA having a nonsense mutation and the treatment of disorders associated therewith” (PTC Therapeutics, Inc., priority 2006, dated 2016).

Tests used:
Format in all cases: in vivo, human
[1] = Patient-reported changes in cystic fibrosis symptoms, CF Phase 2 interim analysis; settings: of 15 CF patients in interim analysis
Source text: In addition, although changes in patient's symptoms were not formally measured through the use of a quality-of-life questionnaire, trial investigators were requested to ask about changes in patients' cystic fibrosis symptoms. In the 15 patients included in the interim analysis, 6 reported general improvements in well being, 6 reported decrease in cough and 10 reported decreased mucus thickness and easier clearing of mucus.

CFTR = assay: Transepithelial potential difference (TEPD) chloride conductance, Phase 2 study in nonsense-mutation-mediated cystic fibrosis
Protocol: The measurement of transepithelial potential difference (TEPD), also known as nasal potential difference, provides a sensitive evaluation of sodium and chloride transport directly in secretory epithelial cells via assessment of transepithelial bioelectric properties (Knowles et al., 1981, N. Engl. J. Med. 305(25):1489-95; Knowles et al., 1995, Hum. Gene Ther. 6:445). TEPD is performed in each nostril using standardized techniques (Standaert et al., 2004, Ped. Pulm. 37:385-92). In the procedure, a small plastic catheter is used to assess electrical differences across the outer cell membrane of nasal mucosa cells in the nostril. TEPD values are expressed in millivolts, or mV. A chloride conductance equal to or more electrically negative than −5.0 mV is generally considered to be in the normal range. […] TEPD assessments can also be made on rectal epithelial cells and lower respiratory epithelial cells. Because of the role of the CFTR protein in transporting chloride ions across cell membranes, and because of the absence of this protein, cystic fibrosis patients have an abnormal TEPD chloride conductance. As an endpoint, TEPD has the advantage that it can detect chloride transport changes that are a quantitative integration of the presence, functional activity, and apical location of the CFTR in airway cells. Furthermore, it is a direct measure of CFTR activity that is not likely to be affected by supportive or palliative treatments for CF (with the possible exception of systemically administered aminoglycoside antibiotics). Of importance is evidence that TEPD values can correlate with the degree of pulmonary dysfunction and radiographic abnormality (Ho et al., 1997, Eur. Respir. J. 10(9):2018-22; Fajac et al., 1998, Eur. Respir. J. 12(6):1295-300; Sermet-Gaudelus et al., 2005, Am. J. Respit. Crit. Care Med. 171(9):1026-1031). […] Under baseline conditions, TEPD-assessed chloride channel activity is very unlikely to normalize spontaneously in patients with CF; any observed improvements in TEPD-assessed chloride channel activity are expected to specifically denote pharmacological activity of CFTR-correcting therapies. Accordingly, it has become the primary endpoint in Phase 1-2 pharmacological and gene replacement studies aimed at correcting CFTR dysfunction (Peckham et al., 1995, AJ. Clin Sci (London). 89(3):277-84; Wilschanski et al., 2003, N. Engl. J. Med. 349(15):1433-41).
3-[5-(2-Fluoro-phenyl)-[1,2,4]oxadiazol-3-yl]-benzoic acid was provided in a formulation described herein.
(§1) Clinical endpoints were evaluated using the procedures set forth above. TEPD measurements were made prior to treatment and on days 14 and 28 of Cycle 1 and Cycle 2. Nasal mucosal curettage was collected from each nostril of each patient prior to treatment and on days 14 and 28 of Cycle 1 and Cycle 2. Pulmonary tests, including FEV1, FVC and MEF25-75, were measured prior to treatment, on day −1 of Cycle 2, on day 13 or 14 of Cycle 1 and day 13 or 14 of Cycle 2 in the study being conducted in Israel and the same parameters were measured prior to treatment and on day 13 or 14 of Cycle 2 in the study being conducted in the United States.
This is the average of the changes from the beginning to the end of the treatment period in TEPD chloride conductance within each study participant. For example, if the changes in TEPD chloride conductance within each of three participants were −7.0 mV, −2.0 mV and −9.0 mV, the mean change in TEPD chloride conductance among these participants would be −6.0 mV.
For purposes of the trials, a chloride conductance response is defined as a TEPD chloride conductance improvement of at least −5 mV. For example, in a patient with a TEPD chloride conductance value of +1.0 my at baseline and a TEPD chloride conductance value of −6.0 mV at the end of treatment, the TEPD chloride conductance improvement would be −7.0 mV, representing a chloride conductance response. […]

[2] = Pulmonary function tests (FEV1, FVC), CF Phase 2 study
Protocol: Pulmonary function tests, including FEV1, FVC, and MEF25-75, are measured using standard spirometry procedures. Assessments of pulmonary function (including MEF25-75, FVC, and, particularly, FEV1) have been acknowledged as definitive clinical endpoints in patients with CF (Food and Drug Administration, 62nd Anti-Infective Drugs Advisory Committee. Discussion of NDA for tobramycin solution for inhalation (Tobi®) for the management of cystic fibrosis patients. November, 1997; Tiddens, 2002, Pediatr. Pulmonol. 34(3): 228-31). […] Pulmonary function testing is simple to administer (even in patients as young as 7 years of age), and uses standardized equipment and techniques that are widely available. Interpretation is performed using well-established normative equations that account for patient age, height, and gender.
as §1
Statistically significant results and positive trends for secondary endpoints were also observed. In particular, although the trials were not been powered to detect statistical significant changes in secondary endpoints, statistically significant improvements from study entry to the end of the higher-dose treatment cycle in the patients' mean FEV1, FVC and weight were observed.

[3] = Higher dose level 10, 10, 20 mg/kg TID oral 14 days, 15 CF patients
[4] = Lower dose level 4, 4, 8 mg/kg TID oral 14 days, 15 CF patients
[5] = study entry to end of higher dose treatment, percentage of normal

In the case of `O=C(O)c1cccc(-c2noc(-c3ccccc3F)n2)c1` [3-[5-(2-fluoro-phenyl)-[1,2,4]oxadiazol-3-yl]-benzoic acid], the “Patients reporting decrease in cough” value [1] is reported as 6, the “Patients reporting decreased mucus thickness and easier clearing of mucus” value [1] is reported as 10 and the “Patients reporting general improvements in well being” value [1] is reported as 6. The “TEPD chloride conductance in patients with different types of nonsense mutations within the CFTR gene” value (CFTR; 15 CF patients) was “Improvements in TEPD chloride conductance”, the “Mean change in TEPD chloride conductance: Best of nostrils” value (CFTR; [3]) was −6.4 mV and the “Mean change in TEPD chloride conductance: Mean of both nostrils” value (CFTR; [3]) was −4.4 mV. The “Mean change in TEPD chloride conductance: Best of nostrils” value (CFTR; [4]) was −9.0 mV, the “Mean change in TEPD chloride conductance: Mean of both nostrils” value (CFTR; [4]) was −6.7 mV and the “Treatment effects at the lower and the higher dose levels (TEPD chloride conductance)” value (CFTR; lower 4, 4, 8 mg/kg versus higher 10, 10, 20 mg/kg) was “not statistically significant”. For the same compound, the “Mean FEV1, End of Higher Dose Treatment” value ([2]; percentage of normal for gender, age and height, study entry 65.8%, one patient not included) was 69.1%, the “Mean FVC, End of Higher Dose Treatment” value ([2]; percentage of normal for gender, age and height, study entry 80.2%, one patient not included) was 85.1% and the “Mean FEV1, Change” value [2, 5] was 3.3%. The “Mean FVC, Change” value [2, 5] was 4.9%.
